Test [1] concerns HL-60. Put plainly: Ability to induce differentiation of human promyeloid leukemia cells (HL-60). Format: functional.
The target in test [2] is T1, Vitamin D3 receptor (Homo sapiens) (UniProt P11473).
T1 sequence (whole entry): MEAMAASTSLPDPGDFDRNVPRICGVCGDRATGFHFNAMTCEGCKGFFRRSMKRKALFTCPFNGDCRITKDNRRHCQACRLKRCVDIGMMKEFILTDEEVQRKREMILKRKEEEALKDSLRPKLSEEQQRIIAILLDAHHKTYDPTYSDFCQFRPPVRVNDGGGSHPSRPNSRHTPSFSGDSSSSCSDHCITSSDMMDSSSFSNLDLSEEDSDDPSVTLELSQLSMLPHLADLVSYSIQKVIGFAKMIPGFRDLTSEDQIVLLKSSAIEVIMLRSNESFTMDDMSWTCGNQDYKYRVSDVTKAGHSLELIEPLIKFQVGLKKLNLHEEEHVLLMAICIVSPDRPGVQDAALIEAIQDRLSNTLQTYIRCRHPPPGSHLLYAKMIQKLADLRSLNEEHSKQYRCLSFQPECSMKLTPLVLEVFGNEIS
Put plainly: Compound was tested to assess the relative affinity for the intestinal mucosal vitaminD receptor.

Test [3] deals with HL-60. Put plainly: Compound was tested to induce differentiation of human promyeloid leukemia cells (HL-60). The format is functional.

As to `C=C1/C(=C\C=C2/CCC[C@]3(C)[C@@H]([C@H](C)COCC(C)(C)O)CC[C@@H]23)C[C@@H](O)C[C@@H]1O`, the Relative activity in the test with HL-60 [1] came out at 9. The molecule also yielded a Relative affinity in test [2] of 2.

As to `C=C1/C(=C\C=C2/CCC[C@]3(C)[C@@H]([C@H](C)COC(=O)C(C)(C)O)CC[C@@H]23)C[C@@H](O)C[C@@H]1O`, in the test on HL-60 [3], the Relative activity is 6. In addition, in test [2], the Relative affinity came out at 26.

In the test with HL-60 [3], `C=C1/C(=C\C=C2/CCC[C@]3(C)[C@@H]([C@H](C)CSCC(C)(C)O)CC[C@@H]23)C[C@@H](O)C[C@@H]1O` yielded a Relative activity of 29. The same molecule displayed a Relative affinity in test [2] of 13.

Source of the values: ChEMBL document CHEMBL1151498, “Synthesis and biological evaluation of 23-oxa-, 23-thia- and 23-oxa-24-oxo-1,25-dihydroxyvitamin D3” (1993).
